The values that follow come from article PMC9926489, “Chemical Optimization of Selective Pseudomonas aeruginosa LasB Elastase Inhibitors and Their Impact on LasB-Mediated Activation of IL-1β in Cellular and Animal Infection Models” (ACS Infectious Diseases, 2023).

For orientation: IC50 means the concentration that gives 50% inhibition. Read a low IC50 as greater potency in that assay. As a reminder, the Ki is the equilibrium dissociation constant of an inhibitor or competing ligand from its target. A high value points to weaker binding.

Data set [1] can be described thus: Cytotoxicity screening (MTS), SAEC. It counts as cell-based. The settings on record: human, small airway epithelial cells (SAEC). The procedure:
Bronchial smooth muscle cells (BSMC, Lonza CC-2576), small airway epithelial cells (SAEC, Lonza CC-2547), or HepG2 cells (ATCC HB-8065) were seeded in 96-well plates at a density of 25,000 per well. Culture of these cells throughout the protocol utilized incubation at 37 °C, 5% CO2 in a humidified atmosphere, with BSMC and SAEC cells cultured in cell-specific media (Lonza) and HepG2 cells cultured in RPMI 1640 medium containing Glutamax (Gibco) and 10% fetal bovine serum. Plates containing BSMC cells were collagen coated to assist with cell adhesion. Following an overnight settling period, media was replaced with fresh media, with, or without, compound. Compound concentrations tested were 1, 3, 10, 30, and 100 μM, in duplicate. The cells were incubated with compound for 24 h. Control (1% DMSO) and positive standards terfenadine- and salmeterol-treated groups were included for both cell lines. […] The reaction was stopped with 12.5 μL of 10% SDS, plates briefly shaken, and absorbance (490 nm) read using a Spectramax M5e plate reader (Molecular Devices). Percentages of viable cells were calculated as: (test sample Abs 490 nM-mean blank Abs 490 nm)/(mean control Abs 490 nM-mean blank Abs 490 nm) × 100.

Data set [2] deals with T1, purified LasB (Pseudomonas aeruginosa, UniProt P14756).
T1 construct: The mature LasB protein is a 33 kDa metalloprotease, which is secreted from P. aeruginosa; host or cells: P. aeruginosa PAO1 (native secretion, culture supernatant)
T1 sequence (P14756 198-498): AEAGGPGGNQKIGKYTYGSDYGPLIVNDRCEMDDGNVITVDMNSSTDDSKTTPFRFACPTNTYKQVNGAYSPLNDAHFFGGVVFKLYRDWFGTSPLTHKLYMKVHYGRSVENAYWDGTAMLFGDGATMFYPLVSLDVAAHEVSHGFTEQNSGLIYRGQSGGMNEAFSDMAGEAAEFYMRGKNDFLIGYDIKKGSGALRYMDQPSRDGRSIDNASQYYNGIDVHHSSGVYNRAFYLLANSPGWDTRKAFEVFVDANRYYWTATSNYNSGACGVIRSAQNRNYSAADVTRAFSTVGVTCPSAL
The data set can be described thus: Inhibition of LasB-mediated proteolysis of pro-IL-1β-derived peptide Sub115. It counts as biochemical, P. aeruginosa. From the text: Previous studies have shown that LasB cleaves the N-terminal domain of pro-IL-1β, thereby generating a mature active form of IL-1β in a manner analogous to the normal host activation mechanism involving cleavage by caspases.[16] This activity can be followed spectrophotometrically via hydrolysis of an internally quenched fluorescent peptide Sub115 (McA-HDAPVRSLN-K-Dnp), which incorporates the LasB cleavage site from pro-IL-1β. To determine whether compounds 12 and 16 were able to inhibit this activity, Sub115 hydrolysis was measured in the presence of varying concentrations of substrate and inhibitors (Figure 2B). […] These values, although still submicromolar, were higher than those determined with the Abz-AGLA-Nba hydrolysis assay, perhaps due to the different ion composition of the respective assay buffers.
The peptide HDAPVRSLN, corresponding to amino acids 115–123 of the reference human pro-IL-1β sequence (UniProt: PO1584), was labeled on the N-terminus with Mca and on the C-terminus with Lys-Dnp (CPC Scientific) to generate an internally quenched fluorescent peptide (Sub115). […] The reaction was continuously monitored using a Victor multimode plate reader (PerkinElmer) with excitation at 355 nm and emission at 450 nm, and initial kinetic velocity was calculated. Inhibitory constants (Ki) were determined (two independent replicates) using a competitive inhibitor model.

Data set [3] deals with T1, purified LasB. The data set can be described thus: LasB inhibition, fluorimetric Abz-AGLA-Nba hydrolysis assay with purified LasB. It counts as biochemical. From the text:
This was chosen as the starting point for a medicinal chemistry-driven lead optimization program aiming to improve potency and solubility whilst retaining selectivity against host metalloenzymes. All synthesized compounds were initially assessed in a fluorimetric assay measuring hydrolysis of a fluorogenic substrate Abz-Ala-Gly-Leu-Ala-4-nitrobenzylamide (Abz-AGLA-Nba) by purified LasB and IC50 values determined (Tables 1 and 2). Inhibition of elastin hydrolytic activity was confirmed using an orthogonal assay measuring hydrolysis of Elastin Congo Red (ECR) complex by LasB prepared directly from a P. aeruginosa culture supernatant (Tables 1 and 2). […] Aqueous solubility was determined for most compounds (Tables 1 and 2).
Native LasB protein was purified from culture supernatants of P. aeruginosa strain PAO1 (Charles River Laboratories, U.K.). Briefly, the sample was concentrated by ultrafiltration and the protein was purified by chromatography using an anion exchange (pH 8.5) step followed by gel filtration. This procedure yielded an enzyme preparation (0.8 mg/mL) of >98% purity. The enzyme was stored at −80 °C.
LasB inhibition assays were performed using purified LasB enzyme (1 ng/well) for compound screening or using culture supernatants (prepared as described in the ECR assay) for testing LasB variants. Hydrolysis of the fluorogenic peptide substrate 2-aminobenzoyl-Ala-Gly-Leu-Ala-4-nitrobenzylamide (Abz-AGLA-Nba; Peptide International) in 50 mM Tris-HCl (pH 7.4), supplemented with 2.5 mM CaCl2 was followed using an Envision microplate reader (PerkinElmer) at 315 nm excitation and 430 nm emission. For screening of lead compounds, assays were performed in the presence of 0.01% Triton X-100 with a range of inhibitor concentrations from 0.003 to 3.2 μM. IC50 values were determined from Hill plots using Dotmatics Studies ELN software. For the mechanism of inhibition studies, hydrolysis rates were measured in the presence of variable concentrations of substrate and inhibitor, and the inhibition constant (Ki) was determined using Dixon plot analysis.[31]

Data set [4] concerns the target MMP-13 (Homo sapiens, UniProt P45452). The data set can be described thus: MMP-13 selectivity assay. It counts as biochemical. The settings on record: human MMP-13. The procedure:
Selectivity of compound inhibition was evaluated against other proteases at concentrations between 0.4 and 200 μM. Activity against rabbit angiotensin-converting enzyme (ACE, Sigma) was assessed using 10 μM fluorogenic substrate Abz-Phe-Arg-Lys(Dnp)-P (Enzo Life Sciences) in 100 mM Tris-HCl pH 7, 50 mM NaCl, 10 μM Zn SO4. Activity against human matrix metalloproteases (MMP)-2 and MMP-9 was assessed in 50 mM HEPES pH 7.5, 10 mM CaCl2, 0.01% Triton X-100 using 4 μM fluorogenic substrate Mca-Pro-Leu-Gly-Leu-Dpa-Ala-Arg-NH2 (Enzo Life Sciences). Activity against MMP-1 and MMP-13 was assessed in 25 mM HEPES pH 7.5, 100 mM NaCl, 100 mM CaCl2, 0.0005% Brij using 7.5 μM fluorogenic substrate Mca-Lys-Pro-Leu-Gly-Leu-Dpa-Ala-Arg-NH2 (Sigma) for MMP-1 and 1.25 μM fluorogenic substrate Mca-Pro-Cha-Gly-Nva-His-Ala-Dpa-NH2 (Millipore) for MMP-13. Activity against human neutrophil elastase (HNE, Enzo Life Sciences) was assessed in 100 mM HEPES pH 7.5, 500 mM NaCl, 0.01% of Triton X-100 using 100 μM fluorogenic substrate MeOSuc-AAPV-AMC (Enzo Life Sciences).

`COc1cc2sc(CNC(=O)C3(CC(=O)O)Cc4ccccc4C3)nc2cc1OCCC[N+](C)(C)C` [Compound 12] registered an IC50 at 24 h in data set [1] greater than 100000 nM. The inhibitory constant (Ki) is 704 nM in data set [2] and 35 nM in data set [3]. The concentration for half-maximal inhibition (IC50) is 130 nM in data set [3] and greater than 100000 nM in data set [4].
In data set [1], `COc1cc2sc(CNC(=O)C3(CC(=O)O)Cc4cc(F)c(F)cc4C3)nc2cc1OCCC[N+](C)(CCO)CCO` [Compound 16] gave an IC50 at 24 h greater than 100000 nM. The Ki in data set [2] was found to be 475 nM; in data set [3] it was 32 nM. The IC50 in data set [3] is 80 nM; in data set [4], greater than 100000 nM.
